Results published in patent publication US6667341B2, “Delta dicarbonyl compounds and methods for using the same” (Beacon Laboratories, Inc., priority 2000, dated 2003).

Test system: PC-3 prostate cancer cells
Assay: EDR anti-proliferation assay (3H-thymidine incorporation, soft agar), PC-3
Assay type: cell-based
Details: PC-3 cell line; five days incubation; 3H-TdR incorporation; read-out: PC-3 or MCF-7* IC50
Procedure: (§1) Compounds prepared according to Examples 1-7 were tested for anti-proliferation against PC-3 prostate or MCF-7 breast cancer cells. The specific compounds tested include N-methyl-2-(2-methoxyethoxy)acetamidomethyl butyrate; N-methylbutyramidomethyl cinnamate; N-methylcinnamamidomethyl butyrate; cinnamoyloxymethyl thiobutyrate; butyroyloxymethyl thiocinnamate; bis(thiobutyl)methane; 3-oxohexyl cinnamate; and propionoyloxymethyl propionate. Butyric acid and trichostatin, a potent HDAC inhibitor, were used as reference compounds. Both compounds were purchased from Sigma-Aldrich, Milwaukee, Wis.
The PC-3 cell line was maintained in RPMI supplemented with 10% fetal calf serum and antibiotics. The EDR assay was performed as described by Kern and Weisenthal in “Highly Specific Prediction of Antineoplastic Drug Resistance With An In Vitro Assay Using Suprapharmacologic Drug Exposures,” J. Nat. Cancer Inst., 82:582-588 (1990); and Fruehauf and Bosanquet, “In vitro Determination of Drug Response: A Discussion of Clinical Applications,” PPO Updates 7(12):1-16 (1993). Cells were suspended in 0.12% soft agar in complete medium and plated (2,000 cells per well, as determined by preliminary experiments) in different drug concentrations onto a 0.4% agarose underlayer in 24-well plates. Plating cells on agarose underlayers supports the proliferation only of the transformed cells, ensuring that the growth signal stems from the malignant component of the tumor.
All compounds were dissolved in DMSO to 200× stock solutions. Stock solutions were diluted to 20× working solutions using the tissue culture medium, serially diluted and added to the 24-well plates. The concentration range was 0.001 μM to 0.3 μM for trichostatin and 10 μM-1,000 μM for the other compounds. No significant changes in pH of the culture medium were observed under the above conditions. Diluent control wells contained PC3 cells treated with DMSO, at the dilutions used for appropriate drug treatment. All experimental points were represented by two separate wells (duplicates). Positive controls were determined using at least two wells treated with an extremely high dose of cisplatin, an anti-cancer agent. Four wells containing tumor cells that were not treated with drugs served as negative controls in each experiment.
Cells were incubated with drugs under standard culture conditions for five days. Cultures were pulsed with tritiated thymidine (^3H-TdR, New Life Science Products, Boston, Mass.) at 5 μCi per well for the last 48 hours of the culture period.
(§2) Cell culture plates were then heated to 90° C. to liquefy the agarose, and cells were harvested onto glass fiber filters, which were then placed into counting vials containing liquid scintillation fluid. The radioactivity trapped on the filters was counted with a Beckman scintillation counter. The fraction of surviving cells was determined by comparing ^3H-TdR incorporation in treated (experimental points) and untreated (negative control) wells. All drug concentrations are presented as μM, allowing for normalization of drug response curves and direct comparison of the effects of the drugs. Microsoft Excel was used to organize the raw data on EDR experiments, and the SigmaPlot program was utilized to generate drug response curves. All drug response curves were as approximated as sigmoidal equations (characteristic for typical drug response curves) to fit the data. IC50 values were determined using the approximated sigmoidal curves and expressed as μM. Table 12 provides the PC-3 or MCF-7 IC50 data for each of the compounds tested.

IC50	Compound
40 µM	CCCC(=O)CCOC(=O)C=Cc1ccccc1 [3-oxohexyl cinnamate, 3-Oxohexyl Cinnamate]
36 µM	CCCC(=O)OCN(C)C(=O)COCCOC [N-Methyl-2-(2-methoxyethoxy)acetamidomethyl Butyrate]
100 µM	CCCC(=O)N(C)COC(=O)C=Cc1ccccc1 [N-methylbutyramidomethyl cinnamate, N-Methylbutyramidomethyl Cinnamate]
20 µM	CCCC(=O)OCN(C)C(=O)C=Cc1ccccc1 [N-methylcinnamamidomethyl butyrate, N-Methylcinnamamidomethyl Butyrate]
30 µM	CCCC(=O)OCOC(=S)C=Cc1ccccc1 [butyroyloxymethyl thiocinnamate, Butyroyloxymethyl Thiocinnamate]
30 µM	CCCC(=S)OCOC(=O)C=Cc1ccccc1 [cinnamoyloxymethyl thio-butyrate, Cinnamoyloxymethyl Thiobutyrate]

More lines, now with the values behind:

Compound	IC50
CCCC(=O)SCSC(=O)CCC	40 µM
CCCC(=O)O [butyric acid, reference compound]	> 2000 µM
CC(/C=C/C(=O)NO)=C\[C@@H](C)C(=O)c1ccc(N(C)C)cc1 [trichostatin, reference compound]	0.005 µM

Test system: MCF-7 breast cancer cells
Assay: Anti-proliferation assay, MCF-7
Assay type: cell-based
Details: Homo sapiens, MCF7; value marked *: obtained from MCF-7 cell line; read-out: PC-3 or MCF-7* IC50
Procedure: as §1
as §2, with “Microsoft Excel was used to organize the raw data on EDR experiments, and the SigmaPlot program was utilized to generate drug response curves. All drug response curves were as approximated as sigmoidal equations (characteristic for typical drug response curves) to fit the data.” left out, “Table 12 provides the PC-3 or MCF-7 IC50 data for each of the compounds tested.” left out

Compound	IC50
CCC(=O)OCOC(=S)CC [propionoyloxymethyl thiopropionate, Propionoyloxymethyl Thiopropionate]	50 µM
